Measured values reported in US9248131B2, “Aquaporin modulators and methods of using them for the treatment of edema and fluid imbalance” (THE ARIZONA BOARD OF REGENTS ON BEHALF OF THE UNIVERSITY OF …, priority 2006, dated 2016).

How the values were obtained:
AQP4-expressing oocytes = target: T1, AQP4-expressing oocytes (Homo sapiens, UniProt P55087); assay: Simple screen: time to oocyte bursting in hypotonic saline; format: cell-based; details: AQP4-expressing oocytes; concentration not given
T1 construct: expressed in transfected cells; host or cells: Xenopus oocytes
Experimental: The composition of the library for initial AQP channel screening included various channel, transporter and receptor blocking compounds based on intuition and from clues regarding clinical side effects that involved water transporting tissues. In a simple screen (FIG. 1), control and AQP4-expressing oocytes were preincubated in isotonic saline (100 mM NaCl; 5 mM MgCl2; 5 mM HEPES, pH 7.3; ˜200 mOsm) containing the test compound for 10-15 min before each experiment; then the time to oocyte bursting (physical explosion) after transfer to 100 mOsm saline was monitored visually. […] Block was evident in the increased time required for bursting in hypotonic saline.

AQP4 = target: T2, AQP4 (Homo sapiens, UniProt P55087); assay: Oocyte swelling assay: water permeability (Pf) of AQP4-expressing oocytes by videomicroscopy, block or % stimulation; format: cell-based; details: for AQP-4 effect: comparison with bumetanide (in words): relative to bumetanide
T2 construct: expressed in transfected cells; host or cells: Xenopus oocytes
From the text: (§1) A method for screening compounds for their ability to modulate aquaporin activity based on a water permeability assay in Xenopus oocytes expressing aquaporins which is used to identify, assess, and characterize compounds that either block or stimulate the aquaporin channels including AQP1, AQP4 and AQP9 channels.
(§2) Selection rationale and methodology. The ability of compounds, analogs and/or agents to block an aquaporin channel was quantified by videomicroscopic analyses of cross-sectional area of AQP-expressing oocytes as a function of time in a defined osmotic gradient, allowing the calculation of the water permeability factor (Pf), statistical evaluation of significant differences in the rate of water entry, and definition of dose response curves with IC50 values (concentration required for half-maximal block).
(§3) This compound evaluation method has been utilized with AQP1,-4,-5, and -9 channels. Observations of channel stimulation were made using the same assay method, however, the results were reported as % stimulation over control at a given concentration. […] TEA is known as a blocker of K^+ channel subtypes and nicotinic acetylcholine receptors. TEA sensitivity of AQP1 was removed by site-directed mutagenesis of tyrosine 186 to phenylalanine (Y186F) in the outer vestibule of the water pore, and confirmed that the inhibitory action of TEA is not due to nonspecific effects on endogenous channels (Brooks et al., 2000).

AQP1 [1] = target: T3, AQP1 (Homo sapiens, UniProt P29972); assay: Oocyte swelling assay: water permeability (Pf) of AQP1-expressing oocytes, block or % stimulation; format: cell-based; design: expressed in transfected cells; host or cells: Xenopus oocytes
T3 sequence (P29972 1-269): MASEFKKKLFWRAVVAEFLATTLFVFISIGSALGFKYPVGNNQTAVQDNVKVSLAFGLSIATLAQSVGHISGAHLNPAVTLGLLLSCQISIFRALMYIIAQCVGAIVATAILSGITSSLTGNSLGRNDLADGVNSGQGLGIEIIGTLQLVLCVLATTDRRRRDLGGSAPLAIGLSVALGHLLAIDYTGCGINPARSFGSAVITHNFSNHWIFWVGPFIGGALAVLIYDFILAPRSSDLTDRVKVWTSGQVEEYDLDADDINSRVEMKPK
From the text: as §1, §2, §3

AQP1 [2] = target: T3, AQP1; details: AQP1 expressed in oocytes (Brooks et al., 2000); cited from earlier work
[3] = ↓ block, ↑ activation, ═ no effect, symbols not defined in the table
[4] = ↓ block, ↑ stimulation, ═ no effect, symbols not defined in the table

T2 sequence (P55087 whole entry, species assumed): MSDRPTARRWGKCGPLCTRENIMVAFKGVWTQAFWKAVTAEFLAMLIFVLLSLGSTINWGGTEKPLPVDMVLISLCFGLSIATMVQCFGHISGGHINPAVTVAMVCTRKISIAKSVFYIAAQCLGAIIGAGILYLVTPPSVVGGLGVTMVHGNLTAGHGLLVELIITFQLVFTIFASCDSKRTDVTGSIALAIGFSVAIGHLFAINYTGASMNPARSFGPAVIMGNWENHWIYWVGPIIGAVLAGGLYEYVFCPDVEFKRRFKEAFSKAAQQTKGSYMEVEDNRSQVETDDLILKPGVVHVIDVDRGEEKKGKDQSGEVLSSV
T1 sequence (P55087 whole entry, species assumed): as above

**Q.** For [Cl][Hg][Cl] [HgCl2], which “time to oocyte bursting” value (AQP4-expressing oocytes) is on record?
**A.** Its value is “no effect”.

**Q.** For CCCCNc1cc(C(=O)Nc2ccncc2)cc(S(N)(=O)=O)c1Oc1ccccc1 [AQP-0013], which “AQP-4 effect: % block” value (AQP4; 10 μM extracellularly) is on record?
**A.** The value was 80%.

**Q.** What about the “AQP-4 effect (arrow symbol)” value (AQP4; [3]) of the same compound?
**A.** The value was “↓↓”.

**Q.** Which results are given for CCCCNc1c(Oc2ccccc2)cc(S(=O)(=O)NC)cc1C(=O)O?
**A.** AQP-4 effect: % block (AQP4; at 100 μM): −40%; AQP-4 effect: comparison with bumetanide (in words) (AQP4): Improved block

**Q.** Which results are given for NS(=O)(=O)c1cc(C(=O)O)c(NCc2ccco2)cc1NCc1ccco1 [AQP-0033]?
**A.** AQP-4 effect: % agonist effect (AQP4; 100 μM, route not stated): −25%; AQP-4 effect (arrow symbol) (AQP4; [3]): ↑; AQP-1 effect (in words) (AQP1 [1]; given extracellularly): No significant effect; AQP-1 effect (arrow symbol) (AQP1 [1]; [4]): ═

**Q.** For CC[N+](CC)(CC)CC [tetraethylammonium (TEA), tetraethylammonium], which “water flux through AQP1 channels” value (AQP1 [2]) is on record?
**A.** Its value is “blocks water flux”.

**Q.** What does the source list for CCCCNc1cc(C(=O)Nc2ccncc2)cc(S(N)(=O)=O)c1Oc1ccccc1 [drawing 107]?
**A.** AQP-4 effect: % block (AQP4; at 10 μM): 80%; toxicity observed in AQP-4 test (AQP4; at 10 μM): some toxicity observed

**Q.** With CCCCNc1c(Oc2ccccc2)cc(S(N)(=O)=O)cc1C(=O)OC as the compound, how does the “AQP-4 effect: % block” value (AQP4; at 1 μM extracellularly) read?
**A.** The value was −30%.

**Q.** And the “AQP-4 effect: comparison with bumetanide (in words)” value (AQP4)?
**A.** The value was “Improved potency over bumetanide”.

**Q.** What does the source list for COC(=O)c1cc(S(N)(=O)=O)c(Cl)cc1NCc1ccco1 [drawing 114]?
**A.** AQP-4 effect (arrow symbol) (AQP4; arrow symbols, key not given): ═; AQP-1 effect (arrow symbol) (AQP1 [1]; arrow symbols, key not given): ↓↓

**Q.** Which “AQP-4 effect (arrow symbol)” value (AQP4; arrow symbols, key not given) does the source give for NS(=O)(=O)c1cc(C(=O)O)c(NCc2ccco2)cc1Cl [drawing 117] here?
**A.** The value was “? ↑”.

**Q.** And the “AQP-1 effect (arrow symbol)” value (AQP1 [1]; arrow symbols, key not given)?
**A.** The value was “═”.

**Q.** For NS(=O)(=O)c1cc(C(=O)O)c(Cl)cc1NCc1ccco1, which “AQP-4 effect (in words)” value (AQP4; at 100 μM) is on record?
**A.** The value was “Significant Agonist Effect at 100 μM”.

**Q.** With CCCCNc1cc(C(=O)NCc2ccncc2)cc(S(N)(=O)=O)c1Oc1ccccc1 as the compound, how does the “AQP-4 effect (in words)” value (AQP4; at 10 μM) read?
**A.** The value was “No Significant effect at 10 μM”.

**Q.** For CCCCNc1cc(C(=O)Nc2ccccn2)cc(S(N)(=O)=O)c1Oc1ccccc1, which “AQP-4 effect (in words)” value (AQP4; at 10 μM) is on record?
**A.** The value was “No Significant effect at 10 μM”.

**Q.** What does the source list for NS(=O)(=O)c1cc(C(=O)O)c(NCc2ccco2)cc1Cl [furosemide, Furosemide, reference compound]?
**A.** AQP-4 effect: % block (AQP4; 15 μM given intracellularly): 75%; AQP-4 effect (in words) (AQP4; 100 μM extracellularly): Modest effect; block of swelling rate in AQP4-expressing oocytes (AQP4; extracellular application): less effective then bumetanide; block of swelling in AQP4-expressing oocytes (AQP4; internal injection into the oocyte (intracellular)): improved block at lower concentrations; AQP-4 effect (arrow symbol) (AQP4; [3]): ↓↓; AQP-1 effect (arrow symbol) (AQP1 [1]; [4]): ═

**Q.** For CCCCNc1cc(C(=O)NCCN2CCS(=O)(=O)CC2)cc(S(N)(=O)=O)c1Oc1ccccc1 [drawing 103], which “AQP-4 effect: % activation” value (AQP4; at 10 μM) is on record?
**A.** Its value is 60% activation at 10 μM.

**Q.** Which “AQP-4 effect (in words)” value (AQP4; at 10 μM) does the source give for CCCCNc1cc(C(=O)NCCN2CCOCC2)cc(S(N)(=O)=O)c1Oc1ccccc1 here?
**A.** Its value is “Some agonist trend at 10 μM”.

**Q.** With NS(=O)(=O)c1cc2c(=O)ncn(Cc3ccco3)c2cc1Cl as the compound, how does the “AQP-4 effect (in words)” value (AQP4; at 100 μM) read?
**A.** The value was “p > 0.05 No significant Antagonist Effect at 100 μM”.

**Q.** Which “AQP-4 effect (arrow symbol)” value (AQP4; arrow symbols, key not given) does the source give for CNS(=O)(=O)c1cc(C(=O)O)c(NCc2ccco2)cc1Cl here?
**A.** Its value is “(↑)?”.

**Q.** What about the “AQP-1 effect (arrow symbol)” value (AQP1 [1]; arrow symbols, key not given) of the same compound?
**A.** The value was “↑”.

**Q.** With NS(=O)(=O)c1cc(C(=O)O)c(Cl)cc1NCc1ccccc1 as the compound, how does the “AQP-4 effect (in words)” value (AQP4; at 100 μM) read?
**A.** The value was “p > 0.05 No significant Antagonist Effect at 100 μM”.

**Q.** With COC(=O)c1cc(S(N)(=O)=O)c(Cl)cc1NCc1ccco1 [AQP-0022, Furosemide methyl ester] as the compound, how does the “AQP-4 effect (in words)” value (AQP4; 100 μM extracellularly) read?
**A.** Its value is “No significant effect”.

**Q.** And the “AQP-4 effect (arrow symbol)” value (AQP4; [3])?
**A.** Its value is “═”.

**Q.** And the “AQP-1 effect (arrow symbol)” value (AQP1 [1]; [4])?
**A.** Its value is “↓↓”.

**Q.** With CCCCNc1cc(C(=O)NCCN2CCS(=O)(=O)CC2)cc(S(N)(=O)=O)c1Oc1ccccc1 [AQP-0009] as the compound, how does the “AQP-4 effect: % activation” value (AQP4; 10 μM given extracellularly) read?
**A.** The value was 60%.

**Q.** What about the “AQP-4 effect (arrow symbol)” value (AQP4; [3]) of the same compound?
**A.** The value was “↑”.
